For this test, the system named is 186277-243-T-J2-PDC complex spheroid growth, % test/control. Briefly: Anticancer human tumor 186277-243-T-J2-PDC patient-derived colon adenocarcinoma cell line growth inhibition [Asc]. The note with it: for viability, T/C: stronger effect = lower value. A digest of the protocol:
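Complex solid-tumor spheroids incorporating human endothelial and mesenchymal stem cells received single agents or combinations over half-log dilution ranges anchored to clinical Cmax.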

[1] abbreviates: curve of first compound, second compound 0.1 µM.
Setting [2] is: curve of first compound, second compound 0.316 µM.
Setting [3] is: curve of first compound, second compound 1 µM.
The mark [4] stands for this setting: curve of first compound, second compound 3.16 µM.
Setting [5] is: curve of first compound, second compound 10 µM.
Setting [6] is: second compound 0.1 µM, first compound 0.0316 µM.
[7] abbreviates: second compound 0.1 µM, first compound 0.1 µM.
Setting [8] is: second compound 0.1 µM, first compound 0.316 µM.
Where [9] appears, read: second compound 0.1 µM, first compound 1 µM.
[10] abbreviates: second compound 0.1 µM, first compound 3.16 µM.
Setting [11] is: second compound 0.1 µM, first compound 10 µM.
The mark [12] stands for this setting: second compound 0.316 µM, first compound 0.0316 µM.
The mark [13] stands for this setting: second compound 0.316 µM, first compound 0.1 µM.
Setting [14] is: second compound 0.316 µM, first compound 0.316 µM.
The mark [15] stands for this setting: second compound 0.316 µM, first compound 1 µM.
Setting [16] is: second compound 0.316 µM, first compound 3.16 µM.
The mark [17] stands for this setting: second compound 0.316 µM, first compound 10 µM.
The mark [18] stands for this setting: second compound 1 µM, first compound 0.0316 µM.
The mark [19] stands for this setting: second compound 1 µM, first compound 0.1 µM.
Setting [20] is: second compound 1 µM, first compound 0.316 µM.
Where [21] appears, read: second compound 1 µM, first compound 1 µM.
The mark [22] stands for this setting: second compound 1 µM, first compound 3.16 µM.
Setting [23] is: second compound 1 µM, first compound 10 µM.
[24] abbreviates: second compound 3.16 µM, first compound 0.0316 µM.
The mark [25] stands for this setting: second compound 3.16 µM, first compound 0.1 µM.
Setting [26] is: second compound 3.16 µM, first compound 0.316 µM.
Setting [27] is: second compound 3.16 µM, first compound 1 µM.
[28] abbreviates: second compound 10 µM, first compound 0.0316 µM.
Where [29] appears, read: second compound 10 µM, first compound 0.1 µM.
The mark [30] stands for this setting: second compound 10 µM, first compound 0.316 µM.
Where [31] appears, read: second compound 10 µM, first compound 1 µM.

“And” between values parts separate entries of the source, which are not always exact repeats. Equal values may be shown once. Some results are limits rather than exact numbers.
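Note: spheroids exposed to agents for 7 days.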
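Throughout, for viability, T/C: 100% = DMSO vehicle control wells.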

For the compound `C#Cc1c(F)ccc2cc(O)cc(-c3ncc4c(N5CC6CCC(C5)N6)nc(OCC56CCCN5CC(F)C6)nc4c3F)c12` (stereo not drawn) + Cc1c(S(C)(=O)=O)c(-c2cc(F)cc(N3CCN(c4ccc(NS(=O)(=O)c5ccc(NC(CCN6CCC(C(=O)OCCCP(=O)(O)O)CC6)CSc6ccccc6)c(S(=O)(=O)C(F)(F)F)c5)cc4)CC3)c2)c(-c2ccc(Cl)cc2)n1C(C)C, the IC50 (in general, the concentration that inhibits the measured activity by half) runs as follows: under setting [1], 178 nM; under setting [2], 127 nM; under setting [3], 114 nM; under setting [4], 91.9 nM; under setting [5], 87.3 nM. Moreover, the viability, T/C (usually the result in the treated group divided by that in the control group, in per cent) under setting [6] is 91.5%; the viability, T/C under setting [7] is 69.7%; the viability, T/C under setting [8] is 30.2%; the viability, T/C under setting [9] is 11.3%; the viability, T/C under setting [10] is 6.43%; the viability, T/C under setting [11] is 5.27%. Also, the viability, T/C is 115% under setting [12]; 56.9% under setting [13]; 23.6% under setting [14]; 7.76% under setting [15]; 3.89% under setting [16]; 3.47% under setting [17]. Besides, the viability, T/C runs as follows: under setting [18], 86.3%; under setting [19], 54%; under setting [20], 18.7%; under setting [21], 5.48%; under setting [22], 2.03%; under setting [23], 1.87%. In addition, the viability, T/C is, setting by setting: under setting [24], 87%; under setting [25], 47.1%; under setting [26], 8.29%; under setting [27], 2.66%; (second compound 3.16 µM, first compound 3.16 µM) 1.51%; (second compound 3.16 µM, first compound 10 µM) 1.34%. For the same compound, the viability, T/C under setting [28] was 76.1%; the viability, T/C under setting [29] was 46.5%; the viability, T/C under setting [30] is 5.7%; the viability, T/C under setting [31] is 1.72%; the viability, T/C (second compound 10 µM, first compound 3.16 µM) was 0.91%; the viability, T/C (second compound 10 µM, first compound 10 µM) was 0.74%.

As to `COc1c(OCCCN2CCOCC2)ccc2c3n(c(=NC(=O)c4cnc(N)nc4)nc12)CCN3` + Cc1c(S(C)(=O)=O)c(-c2cc(F)cc(N3CCN(c4ccc(NS(=O)(=O)c5ccc(NC(CCN6CCC(C(=O)OCCCP(=O)(O)O)CC6)CSc6ccccc6)c(S(=O)(=O)C(F)(F)F)c5)cc4)CC3)c2)c(-c2ccc(Cl)cc2)n1C(C)C, the concentration for half-maximal inhibition (IC50) came to 43.4 nM under setting [1]; 40.2 nM under setting [2]; 33.8 nM under setting [3]; 27.2 nM under setting [4]; 31.8 nM under setting [5]. The viability, T/C is, setting by setting: (second compound 0.1 µM, first compound 0.00316 µM) 107%; (second compound 0.1 µM, first compound 0.01 µM) 101%; under setting [6], 53.2%; under setting [7], 31.5%; under setting [8], 12.4%; under setting [9], 8.11%. Also, the viability, T/C (second compound 0.316 µM, first compound 0.00316 µM) was 98%; the viability, T/C (second compound 0.316 µM, first compound 0.01 µM) is 98.1%; the viability, T/C under setting [12] was 53.2%; the viability, T/C under setting [13] was 24.9%; the viability, T/C under setting [14] was 7.34%; the viability, T/C under setting [15] was 4.21%. The viability, T/C by setting is: (second compound 1 µM, first compound 0.00316 µM) 95.9%; (second compound 1 µM, first compound 0.01 µM) 84.1%; under setting [18], 50.3%; under setting [19], 21.9%; under setting [20], 6.19%; under setting [21], 2%. Also, the viability, T/C was 91.7% (second compound 3.16 µM, first compound 0.00316 µM); 99.2% (second compound 3.16 µM, first compound 0.01 µM); 42.8% under setting [24]; 15.7% under setting [25]; 2.68% under setting [26]; 1.29% under setting [27]. Further, the viability, T/C runs as follows: (second compound 10 µM, first compound 0.00316 µM) 82.4%; (second compound 10 µM, first compound 0.01 µM) 83.9%; under setting [28], 48%; under setting [29], 15.5%; under setting [30], 4.11%; under setting [31], 1.39%.

Consider `CCN1C(C(=O)NC23CCC(C(=O)O)(CC2)CC3)C(c2cccc(Cl)c2F)C2(C(=O)Nc3cc(Cl)ccc32)C12CCCCC2` (stereo not drawn), for which the viability, T/C (compound 0.00949 µM) was 110% and 119%. Besides, the half-maximal inhibitory concentration (IC50) (curve of compound) was 1860 nM and > 3000 nM.

Regarding `C#Cc1c(F)ccc2cc(O)cc(-c3ncc4c(N5CC6CCC(C5)N6)nc(OCC56CCCN5CC(F)C6)nc4c3F)c12` (stereo not drawn), the viability, T/C runs as follows: (compound 0.0316 µM) 103% and 107% and 88.1%; (compound 0.1 µM) 105% and 88.2% and 66.5%; (compound 0.316 µM) 76.8% and 48.2% and 40.8%; (compound 1 µM) 33.4% and 21.4% and 16.8%; (compound 3.16 µM) 19.4% and 12.1% and 11.2%; (compound 10 µM) 12.5% and 8.62% and 7.15%. Besides, the IC50 (curve of compound) is 649 nM and 306 nM and 204 nM.

Turning to `NC1CCC(NC2CC2c2ccccc2)CC1` (stereo not drawn), the viability, T/C (compound 0.000316 µM) was 104% and 75.7% and 107%; the viability, T/C (compound 0.001 µM) was 96.8% and 96.6% and 112%; the viability, T/C (compound 0.00316 µM) was 101% and 79% and 98.9%; the viability, T/C (compound 0.01 µM) was 96.4% and 84.1% and 93.7%; the viability, T/C (compound 0.0316 µM) is 83.8% and 77.6% and 108%; the viability, T/C (compound 0.1 µM) is 79.2% and 72.9% and 88.8%. The half-maximal inhibitory concentration (IC50) (curve of compound) was over 100 nM.

As for `NC(=O)C(=Cn1cnc(-c2cc(C(F)(F)F)cc(C(F)(F)F)c2)n1)c1cncnc1`, the viability, T/C is, setting by setting: (compound 0.000949 µM) 99.3% and 89.8% and 97.7%; (compound 0.003 µM) 80.2% and 78.8% and 94.8%; (compound 0.00949 µM) 96.9% and 100% and 103%; (compound 0.03 µM) 96.2% and 77.8% and 106%; (compound 0.0949 µM) 81.6% and 71.7% and 101%; (compound 0.3 µM) 12.6% and 11.8% and 30.5%. The concentration for half-maximal inhibition (IC50) (curve of compound) is 161 nM and 141 nM and 218 nM.

Consider `O=C(c1cc(Cc2n[nH]c(=O)c3ccccc23)ccc1F)N1CCN(C(=O)C2CC2)CC1` + CNC(C)C(=O)NC1CN(S(=O)(=O)c2cccc(S(=O)(=O)N3CCC4CCC(C(=O)NC(c5ccccc5)c5ccccc5)N4C(=O)C(NC(=O)C(C)NC)C3)c2)CCC2CCC(C(=O)NC(c3ccccc3)c3ccccc3)N2C1=O, for which the IC50 reads like this: (curve of first compound, second compound 0.01 µM) over 10000 nM; (curve of first compound, second compound 0.0316 µM) over 10000 nM; under setting [1], over 10000 nM; under setting [2], over 10000 nM; under setting [3], over 10000 nM. Moreover, the viability, T/C is 95.4% (second compound 0.01 µM, first compound 0.0316 µM); 116% (second compound 0.01 µM, first compound 0.1 µM); 111% (second compound 0.01 µM, first compound 0.316 µM); 120% (second compound 0.01 µM, first compound 1 µM); 121% (second compound 0.01 µM, first compound 3.16 µM); 147% (second compound 0.01 µM, first compound 10 µM). For the same compound, the viability, T/C reads like this: (second compound 0.0316 µM, first compound 0.0316 µM) 114%; (second compound 0.0316 µM, first compound 0.1 µM) 102%; (second compound 0.0316 µM, first compound 0.316 µM) 99.1%; (second compound 0.0316 µM, first compound 1 µM) 114%; (second compound 0.0316 µM, first compound 3.16 µM) 123%; (second compound 0.0316 µM, first compound 10 µM) 156%. In addition, the viability, T/C is, setting by setting: under setting [6], 111%; under setting [7], 112%; under setting [8], 114%; under setting [9], 123%; under setting [10], 129%; under setting [11], 149%. Moreover, the viability, T/C under setting [12] is 98.2%; the viability, T/C under setting [13] is 104%; the viability, T/C under setting [14] was 104%; the viability, T/C under setting [15] was 117%; the viability, T/C under setting [16] was 142%; the viability, T/C under setting [17] is 148%. Further, the viability, T/C under setting [18] is 99.3%; the viability, T/C under setting [19] was 111%; the viability, T/C under setting [20] is 106%; the viability, T/C under setting [21] is 114%; the viability, T/C under setting [22] was 125%; the viability, T/C under setting [23] is 159%.

The values above are taken from PubChem BioAssay AID1963426 (Molecular Pharmacology Branch, DTP, NCI, 2024).
